Results as given in US20250223259A1, “PROTEASE INHIBITORS FOR TREATING OR PREVENTING CORONAVIRUS INFECTION” (Merck Sharp & Dohme LLC, priority 2022, published 2025).

The compounds below were run against SARS2 coronavirus 3CL protease (Severe acute respiratory syndrome coronavirus 2 (2019-nCoV) (SARS-CoV-2), UniProt P0DTD1) (assay: SARS2 Coronavirus 3CL Protease Assay (FRET)). Conditions: SARS2 3CLPro FRET assay; 5 nM enzyme, 30 min pre-incubation with compound, 15 uM peptide substrate, 4 h room temperature.
Format: biochemical

Going from `COC(=O)N[C@H](C(=O)N1C[C@H]2[C@@H]([C@H]1C(=O)N[C@@H](CCC(C)(F)F)C(=O)C(=O)NC1CC1)C21CCCCC1)C(C)(C)C` [Example 69, Methyl ((S)-1-((1R,2S,5S)-2-(((S)-1-(cyclopropylamino)-6,6-difluoro-1,2-dioxoheptan-3-yl)carbamoyl)-3-azaspiro[bicyclo[3.1.0]hexane-6,1'-cyclohexan]-3-yl)-3,3-dimethyl-1-oxobutan-2-yl)carbamate] to `COC(=O)N[C@H](C(=O)N1CC2CCC(C1C(=O)N[C@@H](CCC(C)(F)F)C(=O)C(=O)NC1CC1)C2(F)F)C(C)(C)C` (single isomer, unassigned) [Example 99, methyl ((S)-1-((1(S or R),2(S or R),5(R or S))-2-(((S)-1-(cyclopropylamino)-6,6-difluoro-1,2-dioxoheptan-3-yl)carbamoyl)-8,8-difluoro-3-azabicyclo[3.2.1]octan-3-yl)-3,3-dimethyl-1-oxobutan-2-yl)carbamate], the IC50 rises from 31 nM to 100 nM (3.2-fold). The first is the more potent here.

Compared with `COC(=O)N[C@H](C(=O)N1CC(C23CC(C2)C3)C[C@H]1C(=O)N[C@@H](CCC(C)(F)F)C(=O)C(=O)NC1CC1)C(C)(C)C` (single isomer, unassigned) [Example 2, Methyl ((S)-1-((2S,4(R or S))-4-(bicyclo[1.1.1]pentan-1-yl)-2-(((S)-1-(cyclopropylamino)-6,6-difluoro-1,2-dioxoheptan-3-yl)carbamoyl)pyrrolidin-1-yl)-3,3-dimethyl-1-oxobutan-2-yl)carbamate], `COC(=O)N[C@H](C(=O)N1CC(C2CCOC2)C[C@H]1C(=O)N[C@@H](CCC(C)(F)F)C(=O)C(=O)NC1CC1)C(C)(C)C` (single isomer, unassigned) [Example 54, Methyl ((S)-1-((2S,4(R or S))-2-(((S)-1-(cyclopropylamino)-6,6-difluoro-1,2-dioxoheptan-3-yl)carbamoyl)-4-((R or S)-tetrahydrofuran-3-yl)pyrrolidin-1-yl)-3,3-dimethyl-1-oxobutan-2-yl)carbamate] is 6.9-fold higher in IC50: 29 nM for the first, 201 nM for the second. The first is the more potent here.

Compared with `COC(=O)NC1(C(=O)N2CC3(CCCCC3)C[C@H]2C(=O)N[C@@H](CCC(C)(F)F)C(=O)C(=O)NC2CC2)CC1` [Example 19, Methyl (1-((S)-3-(((S)-1-(cyclopropylamino)-6,6-difluoro-1,2-dioxoheptan-3-yl)carbamoyl)-2-azaspiro[4.5]decane-2-carbonyl)cyclopropyl) carbamate], `COC(=O)NC(C(=O)N1CC2(CCCCC2)C[C@H]1C(=O)N[C@@H](CCC(C)(F)F)C(=O)C(=O)NC1CC1)C1CCC1` (single isomer, unassigned) [Example 63, Methyl ((R or S)-1-cyclobutyl-2-((S)-3-(((S)-1-(cyclopropylamino)-6,6-difluoro-1,2-dioxoheptan-3-yl)carbamoyl)-2-azaspiro[4.5]decan-2-yl)-2-oxoethyl)carbamate] is 16-fold lower in IC50: 497 nM for the first, 32 nM for the second.

`COC(=O)N[C@H](C(=O)N1CC2(CCC(F)(F)CC2)CC1C(=O)N[C@@H](CCC(C)(F)F)C(=O)C(=O)NC1CC1)C(C)(C)C` (single isomer, unassigned) [Example 56, Methyl ((S)-1-((R or S)-(3-(((S)-1-(cyclopropylamino)-6,6-difluoro-1,2-dioxoheptan-3-yl)carbamoyl)-8,8-difluoro-2-azaspiro[4.5]decan-2-yl)-3,3-dimethyl-1-oxobutan-2-yl)carbamate] and `COC(=O)N[C@H](C(=O)N1CC2(CCOCC2)CC1C(=O)N[C@@H](CCC(C)(F)F)C(=O)C(=O)NC1CC1)C(C)(C)C` (single isomer, unassigned) [Example 28, Methyl ((S)-1-((R or S)-(3-(((S)-1-(cyclopropylamino)-6,6-difluoro-1,2-dioxoheptan-3-yl)carbamoyl)-8-oxa-2-azaspiro[4.5]decan-2-yl)-3,3-dimethyl-1-oxobutan-2-yl)carbamate] are within 1.5-fold of each other in IC50: 291 nM for the first, 297 nM for the second.

First: CNC(=O)C(=O)[C@H](CCC(C)(F)F)NC(=O)C1C(C2CC2C)CCN1C(=O)[C@@H](NC(=O)OC)C(C)(C)C (single isomer, unassigned) [Example 107, methyl ((S)-1-((2(S or R),3(S or R))-2-(((S)-6,6-difluoro-1-(methylamino)-1,2-dioxoheptan-3-yl)carbamoyl)-3-((1(S or R),2(R or S))-2-methylcyclopropyl)pyrrolidin-1-yl)-3,3-dimethyl-1-oxobutan-2-yl)carbamate]
Second: CNC(=O)C(=O)[C@H](CCC(C)(F)F)NC(=O)C1C2CC(C)(C)C2CN1C(=O)[C@@H](NC(=O)OC)C(C)(C)C (single isomer, unassigned) [Example 95, methyl ((S)-1-((1S,2S,5S or 1R,2R,5R)-2-(((S)-6,6-difluoro-1-(methylamino)-1,2-dioxoheptan-3-yl)carbamoyl)-6,6-dimethyl-3-azabicyclo[3.2.0]heptan-3-yl)-3,3-dimethyl-1-oxobutan-2-yl)carbamate]
The IC50 of the first is 2.8-fold higher: 14 nM for the first, 5 nM for the second. The second is the more potent here.

Going from `COC(=O)N[C@H](C(=O)N1C[C@@H]2CCC[C@@H]2[C@H]1C(=O)N[C@@H](CCC(C)(F)F)C(=O)C(=O)NCC(F)(F)F)C(C)(C)C` [Example 119, methyl ((S)-1-((1S,3aR,6aS)-1-(((S)-6,6-difluoro-1,2-dioxo-1-((2,2,2-trifluoroethyl)amino)heptan-3-yl)carbamoyl)hexahydrocyclopenta[c]pyrrol-2(1H)-yl)-3,3-dimethyl-1-oxobutan-2-yl)carbamate] to `CCOC(=O)N[C@H](C(=O)N1C[C@@H]2CCC[C@@H]2[C@H]1C(=O)N[C@@H](CCC(C)(F)F)C(=O)C(=O)NC)C(C)(C)C` [Example 120, ethyl ((S)-1-((1S,3aR,6aS)-1-(((S)-6,6-difluoro-1-(methylamino)-1,2-dioxoheptan-3-yl)carbamoyl)hexahydrocyclopenta[c]pyrrol-2(1H)-yl)-3,3-dimethyl-1-oxobutan-2-yl)carbamate], the IC50 falls from 77 nM to 21 nM (3.7-fold).

Compared with `[2H]C([2H])([2H])NC(=O)C(=O)[C@H](CCC(C)(F)F)NC(=O)C1CC(C(F)(F)F)CCN1C(=O)[C@@H](NC(=O)OC([2H])([2H])[2H])C(C)(C)C` (single isomer, unassigned) [Example 100, methyl-d3 ((S)-1-((2(S or R),4(S or R))-2-(((S)-6,6-difluoro-1-((methyl-d3)amino)-1,2-dioxoheptan-3-yl)carbamoyl)-4-(trifluoromethyl)piperidin-1-yl)-3,3-dimethyl-1-oxobutan-2-yl)carbamate], `COC(=O)N[C@H](C(=O)N1C[C@H](C(F)(F)F)C[C@H]1C(=O)N[C@@H](CCC(C)(F)F)C(=O)C(=O)NC1CC1)C(C)(C)F` [Example 71, Methyl ((R)-1-((2S,4R)-2-(((S)-1-(cyclopropylamino)-6,6-difluoro-1,2-dioxoheptan-3-yl)carbamoyl)-4-(trifluoromethyl)pyrrolidin-1-yl)-3-fluoro-3-methyl-1-oxobutan-2-yl)carbamate] is 3.1-fold higher in IC50: 14 nM for the first, 43 nM for the second.

`COC(=O)N[C@H](C(=O)N1CC2(C[C@H]1C(=O)N[C@@H](CCC(C)(F)F)C(=O)C(=O)NC1CC1)CC2(F)F)C(C)(C)C` (single isomer, unassigned) [Example 32, Methyl ((S)-1-((3(R or S),6S)-6-(((S)-1-(cyclopropylamino)-6,6-difluoro-1,2-dioxoheptan-3-yl)carbamoyl)-1,1-difluoro-5-azaspiro[2.4]heptan-5-yl)-3,3-dimethyl-1-oxobutan-2-yl)carbamate] and `COC(=O)N[C@H](C(=O)N1CCC(C(F)F)CC1C(=O)N[C@@H](CCC(C)(F)F)C(=O)C(=O)NC1CC1)C(C)(C)C` (single isomer, unassigned) [Example 108, methyl ((S)-1-((2(S or R),4(R or S)-2-(((S)-1-(cyclopropylamino)-6,6-difluoro-1,2-dioxoheptan-3-yl)carbamoyl)-4-(difluoromethyl)piperidin-1-yl)-3,3-dimethyl-1-oxobutan-2-yl)carbamate] are within 1.5-fold of each other in IC50: 15 nM for the first, 22 nM for the second.

First: CC(F)(F)CC[C@H](NC(=O)[C@@H]1CC2(CCCCC2)CN1C(=O)[C@@H](NC(=O)OC1CCCC1)C(C)(C)C)C(=O)C(=O)NC1CC1 [Example 5, Cyclopentyl ((S)-1-((S)-3-(((S)-1-(cyclopropylamino)-6,6-difluoro-1,2-dioxoheptan-3-yl)carbamoyl)-2-azaspiro[4.5]decan-2-yl)-3,3-dimethyl-1-oxobutan-2-yl)carbamate]
Second: COC(=O)N[C@H](C(=O)N1CC2(CCCCC2)C[C@H]1C(=O)N[C@@H](CCC(C)(F)F)C(=O)C(=O)NC(C)(C)C)C(C)(C)C [Example 18, Methyl ((S)-1-((S)-3-(((S)-1-(tert-butylamino)-6,6-difluoro-1,2-dioxoheptan-3-yl)carbamoyl)-2-azaspiro[4.5]decan-2-yl)-3,3-dimethyl-1-oxobutan-2-yl)carbamate]
The IC50 of the first is 1.9-fold higher: 81 nM for the first, 42 nM for the second. The second is the more potent here.

Compared with `CNC(=O)C(=O)[C@H](CCC(C)(F)F)NC(=O)[C@@H]1CC(F)(F)[C@@H](C)CN1C(=O)[C@@H](NC(=O)OC)C(C)(C)C` [Example 91, methyl ((S)-1-((2S,5S)-2-(((S)-6,6-difluoro-1-(methylamino)-1,2-dioxoheptan-3-yl)carbamoyl)-4,4-difluoro-5-methylpiperidin-1-yl)-3,3-dimethyl-1-oxobutan-2-yl)carbamate], `COC(=O)N[C@H](C(=O)N1C[C@H](OC(F)F)C[C@H]1C(=O)N[C@@H](CCC(C)(F)F)C(=O)C(=O)NC1CC1)C(C)(C)C` [Example 113, methyl ((S)-1-((2S,4R)-2-(((S)-1-(cyclopropylamino)-6,6-difluoro-1,2-dioxoheptan-3-yl)carbamoyl)-4-(difluoromethoxy)pyrrolidin-1-yl)-3,3-dimethyl-1-oxobutan-2-yl)carbamate] is 2.4-fold higher in IC50: 19 nM for the first, 46 nM for the second.

With `CC(F)(F)CC[C@H](NC(=O)[C@@H]1[C@@H]2[C@H](CN1C(=O)[C@@H](NC(=O)OCc1ccccc1)C1CCCCC1)C21CCCCC1)C(=O)C(=O)NC1CC1` [Example 66, Benzyl ((S)-1-cyclohexyl-2-((1R,2S,5S)-2-(((S)-1-(cyclopropylamino)-6,6-difluoro-1,2-dioxoheptan-3-yl)carbamoyl)-3-azaspiro[bicyclo[3.1.0]hexane-6,1'-cyclohexan]-3-yl)-2-oxoethyl)carbamate] the IC50 was 9.9 nM.
